Converted amounts (≈) assume the structure as drawn. Like-named read-outs stand apart in the source and are kept apart here.
Legend:
[1] = target: T1, CD4 (Homo sapiens, UniProt P01730); test: CD4 down-modulation, flow cytometry with FITC-conjugated anti-CD4 (SK3) mAb, SupT1 cells; type: cell-based; design: To study the effect of the CADA derivatives on surface CD4 antigen expression, MT-4 and SupT1 cells were incubated; endogenous in cells; host or cells: MT-4, SupT1, PBMC; conditions: day 4
In short: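 MT-4 and SupT1 cells were exposed at 37 °C to 5-fold compound dilutions (50–0.08 μg/ml). On day 3 (MT-4) or day 4 (SupT1) they were stained with FITC anti-CD4 (SK3) for 30 min at 4 °C and analysed by flow cytometry. IC50 was derived from MFI as % of untreated control, after isotype subtraction.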

[2] = system: HIV-1 strain NL4.3; test: Anti-HIV-1 assay in MT-4 cells (p24 Ag ELISA, Example 3); type: cell-based; conditions: MT-4 cells
In short: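 MT-4 cells infected with HIV-1 NL4.3 in presence of five-fold compound dilutions, incubated 3–5 days until strong viral CPE in untreated infected cells. Supernatant p24 core antigen measured by ELISA; IC50 is concentration giving 50% reduction in p24.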

[3] = target: T1, CD4; test: CD4 down-modulation, flow cytometry with FITC-conjugated anti-CD4 (SK3) mAb, MT-4 cells; type: cell-based; design: To study the effect of the CADA derivatives on surface CD4 antigen expression, MT-4 and SupT1 cells were incubated; endogenous in cells; host or cells: MT-4, SupT1, PBMC
[4] = system: MT-4 cells; test: Cytotoxicity assay (trypan blue exclusion, propidium iodide); type: cell-based, human
Experimental: (§1) Cytotoxicity Assay. Cellular toxicity of the compounds was measured by trypan blue exclusion and also by Propidium Iodide by flow cytometry after 3 or 4 days of incubation, in parallel with the CD4 antigen expression. The CC50 value of each CADA analog is the concentration (in μg/ml) required to reduce the viability of the cells by 50%.

[5] = system: SupT1 cells; test: as above; type: cell-based, human
Experimental: as §1

[6] = system: HHV-7 (KHR strain); test: Anti-HHV-7 assay in SupT1 cells (antigen expression, flow cytometry, Example 3); type: cell-based; conditions: SupT1 cells
In short: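 SupT1 cells pre-incubated 30 min at room temperature with five-fold compound dilutions, then infected with HHV-7. Every 2–3 days from day 4, half the medium and cells were replaced with compound-free medium. Once microscopic CPE appeared, HHV-7 antigen expression was measured by flow cytometry.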

[7] = system: HIV-1 and HHV-7; test: Selectivity index (ratio of CC50 to IC50), antiviral assays; type: cell-based; conditions: over the viruses and cell types tested
Experimental: The IC50 of CADA against the CCR5-using (R5) HIV-1 strain BaL was 0.8 μM in PBMCs. […] The IC50 of PMA for the HIV-1 strains (IIIB, RF and NL4.3) in MT-4 cells was about 0.3 nM, and the IC50 for HHV-7 infection in SupT1 cells was 0.6 nM.

[8] = Cytotoxic concentration (Example 2); type: cell-based; conditions: human, MT-4 cells; read-out: CC50
[9] = target: T1, CD4; test: Cell surface CD4 expression by flow cytometry (anti-CD4 mAb Leu3a-PE); type: cell-based; design: To study the effect of the CADA derivatives on surface CD4 antigen expression, MT-4 and SupT1 cells were incubated; endogenous in cells; host or cells: MT-4, SupT1, PBMC; conditions: SupT1 cells, ATA 24 μM, CADA 16 μM, PMA 8 nM (FIG. 4)
In short: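 MT-4, SupT1 cells and PBMCs were exposed at 37° C to CADA hydrochloride (3.2 or 16 μM) for 20 min to 4 days, with ATA (24 μM) and PMA (8 nM) as comparators in SupT1. Cells were stained with PE-anti-CD4 (Leu3a) for 20 min at 4° C and fixed in 1% formaldehyde. Read-out was flow cytometry as % positive cells and MFI.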

[10] = Cytotoxic concentration (Example 2); type: cell-based; conditions: human, SupT1 cells; read-out: CC50
[11] = system: HHV-7 (KHR strain); test: Anti-HHV-7 assay (HHV-7 antigen expression, flow cytometry, day 12); type: cell-based; conditions: SUP-T1, read-out: IC50 for HHV-7 infection
Experimental: The antiviral activity of CADA against HIV-1 and RHV-7 was investigated. PBMCs and […] cell-depleted PBMCs (removed with CD8 magnetic beads; Dynal AS, Oslo, Norway), previously activated with purified PHA (2 μg/ml) and rhIL-2 (1 ng/ml) for 3 days, were pelleted and exposed to HIV-1 (1 ng p24 Ag per 10^6 cells) for 2 hours at 370C. Then the cells were washed three times with warm medium and cultured in complete medium containing rhIL-2 (1 ng/ml) in the presence or absence of different concentrations of CADA hydrochloride. The anti-HIV-1 assays were also performed in MT-4 and SupT1 cells. CADA hydrochloride was diluted in the plates, then the MT-4 cells or SupT1 cells were added and finally the T-tropic HIV-1 strains. The supernatant was collected at day 5 for MT-4 cells, day 8 for SupT1 cells and day 12 for PBMCs, and stored at −20° C. and analyzed for HIV-1 core antigen by p24 Ag ELISA (NEN, Brussels, Belgium). The SupT1 cells were refreshed on day 4, and half of the medium and cells were replaced and fresh CADA-free medium was added. For the PBMCs, fresh culture medium was added at day 6 containing rhIL-2 (but no CADA). For the anti-HHV-7 assays in PBMCs, CADA hydrochloride was diluted in a plate, 2×10˜cells were added and then HHV-7 (KHR strain) was added in complete medium containing rhIL-2 (1 ng/ml). Fresh culture medium was added again at day 6 containing rhIL-2 (but no CADA). The same infection protocol was used for the SupT1 cells, but without rhIL-2. The SupT1 cells were refreshed on day 4 and day 8, half of the medium and the cells were replaced, and fresh medium without CADA was added. The HHV-7 antigen expression was monitored (at day 12) with a specific mAb to HHV-7 (RK-4) (Advanced Biotechnologies, Columbia, Md.) by flow cytometry, as described previously (Thang, Y., et al., Antiviral Res. 43:23-35 (1999)).

Row | SMILES | IC50 CD4 (50% inhibition of extracellular CD4 expression) [1] | IC50 HIV-1 (NL4.3), p24 Ag ELISA [2] | IC50 CD4 (50% inhibition of extracellular CD4 expression) ([3]; MT-4 cells, day 3) | CD4 down-modulating activity, fold less active than CADA ([3]; compared to CADA, MT-4 cells (stated for some compounds)) | CC50 (50% cytotoxic concentration) [4] | CC50 (50% cytotoxic concentration) [5] | IC50 HHV-7 (50% reduction of HHV-7 antigen expression) [6] | selectivity index (SI), ratio of CC50 to IC50 [7] | CC50 [8] | percentage of cell surface CD4 expression ([9]; 20 minutes) | percentage of cell surface CD4 expression ([9]; 4 hours) | percentage of cell surface CD4 expression ([9]; 1 day) | percentage of cell surface CD4 expression ([9]; 4 days) | CC50 [10] | IC50 [11]
1 | C=C1CN(S(=O)(=O)c2ccc(C)cc2)CCCN(Cc2cccnc2)CCCN(S(=O)(=O)c2ccc(C)cc2)C1 [AS-N6P6] | 4.27 µg/mL | 2.38 µg/mL (≈ 4.08 µM) | 3.22 µg/mL | 7 fold | 21.4 µg/mL (≈ 36.7 µM) | >50 µg/mL | 1.50 µg/mL | – | – | – | – | – | – | – | –
2 | CCCCCCCCCCCCCC(=O)O[C@@H]1[C@@H](C)[C@@]2(O)[C@@H](C=C(CO)C[C@]3(O)C(=O)C(C)=C[C@@H]23)[C@@H]2C(C)(C)[C@]12OC(C)=O [PMA, Phorbol myristate acetate, reference compound] | – | – | – | – | – | – | – | 2-7 | 2.1 nM | only a slight CD4 decrease | dramatically decreased | almost undetectable | 81.6% | 1.5 nM | 0.6 nM

Source: patent US20040220164A1, “Triaza compound immunoregulatory agents” (priority 2001, published 2004)
